In a compilation of properties of binary mixtures (doi:10.1039/c7cp04592a):

Assay: xn = mol fraction of the nth substance listed
Settings: 100 kPa

With `CC#N` + CC[NH3+].O=[N+]([O-])[O-] the viscosity (288.07 K, x2 = 0) was 0.408 mPa·s, the viscosity (293.1 K, x2 = 0) was 0.371 mPa·s and the viscosity (298 K, x2 = 0) was 0.35 mPa·s. It also gave a viscosity (298.12 K, x2 = 0) of 0.352 mPa·s and a viscosity (303.13 K, x2 = 0) of 0.321 mPa·s.
Compound `CC[NH3+].O=[N+]([O-])[O-]` + CC#N has an electrical conductivity (278 K, x1 = 0.1) of 1.12 S/m, an electrical conductivity (278 K, x1 = 0.2) of 2.29 S/m and an electrical conductivity (278 K, x1 = 0.5) of 2.85 S/m. For the same compound, the electrical conductivity (278 K, x1 = 0.7) was 2 S/m, the electrical conductivity (278 K, x1 = 0.9) was 1.59 S/m and the electrical conductivity (288 K, x1 = 0.1) was 1.32 S/m. For the same compound, the electrical conductivity (288 K, x1 = 0.2) was 2.85 S/m, the electrical conductivity (288 K, x1 = 0.3) was 3.41 S/m and the electrical conductivity (288 K, x1 = 0.5) was 3.77 S/m. The electrical conductivity (288 K, x1 = 0.9) was 2.27 S/m, the viscosity (288.06 K, x1 = 0.6) was 13.65 mPa·s and the viscosity (288.06 K, x1 = 0.8) was 31.4 mPa·s. For the same compound, the viscosity (288.06 K, x1 = 0.9) was 40.5 mPa·s, the viscosity (288.06 K, x1 = 1) was 44.4 mPa·s and the viscosity (288.07 K, x1 = 0.1) was 0.815 mPa·s. It also gave a viscosity (288.09 K, x1 = 0.2) of 1.615 mPa·s, a viscosity (288.09 K, x1 = 0.4) of 5.47 mPa·s and a viscosity (288.09 K, x1 = 0.5) of 8.6 mPa·s. The viscosity (293.06 K, x1 = 0.4) was 4.9 mPa·s, the viscosity (293.07 K, x1 = 0.2) was 1.458 mPa·s and the viscosity (293.08 K, x1 = 0.8) was 26.09 mPa·s. For the same compound, the viscosity (293.08 K, x1 = 0.9) was 34 mPa·s, the viscosity (293.08 K, x1 = 0.98) was 36.9 mPa·s and the viscosity (293.08 K, x1 = 1) was 37.2 mPa·s. For the same compound, the viscosity (293.09 K, x1 = 0.5) was 7.45 mPa·s, the viscosity (293.09 K, x1 = 0.6) was 11.54 mPa·s and the viscosity (293.1 K, x1 = 0.1) was 0.754 mPa·s. For the same compound, the viscosity (293.11 K, x1 = 0.7) was 17.86 mPa·s, the electrical conductivity (298 K, x1 = 0.1) was 1.69 S/m and the viscosity (298 K, x1 = 0.1) was 0.685 mPa·s. For the same compound, the electrical conductivity (298 K, x1 = 0.2) was 3.96 S/m, the viscosity (298 K, x1 = 0.2) was 1.374 mPa·s and the electrical conductivity (298 K, x1 = 0.3) was 4.71 S/m. For the same compound, the viscosity (298 K, x1 = 0.3) was 2.451 mPa·s, the viscosity (298 K, x1 = 0.4) was 4.07 mPa·s and the electrical conductivity (298 K, x1 = 0.5) was 5 S/m. For the same compound, the viscosity (298 K, x1 = 0.5) was 6.37 mPa·s, the viscosity (298 K, x1 = 0.6) was 9.92 mPa·s and the viscosity (298 K, x1 = 0.8) was 20.97 mPa·s. For the same compound, the electrical conductivity (298 K, x1 = 0.9) was 3.14 S/m, the viscosity (298 K, x1 = 0.9) was 27.58 mPa·s and the viscosity (298 K, x1 = 0.98) was 32 mPa·s. The electrical conductivity (298 K, x1 = 1) was 2.26 S/m, the viscosity (298 K, x1 = 1) was 32.7 mPa·s and the viscosity (298.05 K, x1 = 0.8) was 21.52 mPa·s. It also gave a viscosity (298.07 K, x1 = 1) of 33.9 mPa·s, a viscosity (298.08 K, x1 = 0.7) of 15.22 mPa·s and a viscosity (298.08 K, x1 = 0.9) of 28.01 mPa·s. The viscosity (298.11 K, x1 = 0.3) was 2.463 mPa·s, the viscosity (298.11 K, x1 = 0.4) was 4.11 mPa·s and the viscosity (298.11 K, x1 = 0.5) was 6.46 mPa·s. It also gave a viscosity (298.13 K, x1 = 0.6) of 10.08 mPa·s, a viscosity (298.14 K, x1 = 0.1) of 0.698 mPa·s and a viscosity (303.08 K, x1 = 0.7) of 12.25 mPa·s. It also gave a viscosity (303.09 K, x1 = 0.3) of 2.396 mPa·s, a viscosity (303.1 K, x1 = 0.1) of 0.651 mPa·s and a viscosity (303.11 K, x1 = 0.4) of 4.16 mPa·s. It also gave a viscosity (303.11 K, x1 = 0.5) of 6.13 mPa·s, a viscosity (303.11 K, x1 = 0.6) of 8.74 mPa·s and a viscosity (303.11 K, x1 = 0.9) of 24.88 mPa·s. It also gave a viscosity (303.12 K, x1 = 0.2) of 1.16 mPa·s, a viscosity (303.13 K, x1 = 1) of 30.58 mPa·s and a viscosity (303.14 K, x1 = 0.98) of 29.95 mPa·s. The viscosity (303.16 K, x1 = 0.8) was 17.9 mPa·s, the electrical conductivity (308 K, x1 = 0.1) was 2.38 S/m and the electrical conductivity (308 K, x1 = 0.3) was 6.28 S/m. The electrical conductivity (308 K, x1 = 0.5) was 6.3 S/m, the electrical conductivity (308 K, x1 = 0.9) was 4.21 S/m and the electrical conductivity (308 K, x1 = 1) was 3.07 S/m. It also gave a viscosity (308.11 K, x1 = 1) of 26.5 mPa·s, a viscosity (308.12 K, x1 = 0.4) of 3.98 mPa·s and a viscosity (308.13 K, x1 = 0.2) of 1.074 mPa·s. It also gave a viscosity (308.14 K, x1 = 0.98) of 24.9 mPa·s, a viscosity (308.15 K, x1 = 0.5) of 5.77 mPa·s and a viscosity (308.16 K, x1 = 0.1) of 0.618 mPa·s.
